What was measured:
[1] = system: primary cortical neurons; test: Cell viability, Hoechst/PI co-staining; assay type: cell-based, rat; conditions: gp120s in combination with Helix-A nano or Helix-A peptide, 24 hr; three separate experiments, n=200 neurons each group; Fig. 6A
[2] = biological target: tubulin dimer; test: Surface plasmon resonance; assay type: binding, Porcine; conditions: peptides injected at 10 nM – 500 µM; three independent experiments; Fig. 2D
[3] = system: cortical neurons; test: LDH release; assay type: cell-based, rat; conditions: gp120s in combination with Helix-A nano or Helix-A peptide, 24 hr; three separate experiments; Fig. 6B
[4] = system: cortical neurons; test: Length of neuronal processes; assay type: cell-based, rat; conditions: gp120s (all 5 nM) in combination with Helix-A peptide or Helix-A nano (5 µM each), 24 hr; three independent experiments
[5] = biological target: assembled MTs (containing ~25% of TUBB3); test: Surface plasmon resonance; assay type: binding, Porcine; conditions: peptides injected at 10 nM – 500 µM; three independent experiments; Fig. 2D
[6] = system: CXCR4; conditions: cited from earlier work
[7] = biological target: recombinant TUBB3 (Homo sapiens, UniProt Q13509); test: Surface plasmon resonance; assay type: binding; conditions: peptides injected at 10 nM – 500 µM; three independent experiments; Fig. 2D
Chain of recombinant TUBB3 (Q13509 whole entry): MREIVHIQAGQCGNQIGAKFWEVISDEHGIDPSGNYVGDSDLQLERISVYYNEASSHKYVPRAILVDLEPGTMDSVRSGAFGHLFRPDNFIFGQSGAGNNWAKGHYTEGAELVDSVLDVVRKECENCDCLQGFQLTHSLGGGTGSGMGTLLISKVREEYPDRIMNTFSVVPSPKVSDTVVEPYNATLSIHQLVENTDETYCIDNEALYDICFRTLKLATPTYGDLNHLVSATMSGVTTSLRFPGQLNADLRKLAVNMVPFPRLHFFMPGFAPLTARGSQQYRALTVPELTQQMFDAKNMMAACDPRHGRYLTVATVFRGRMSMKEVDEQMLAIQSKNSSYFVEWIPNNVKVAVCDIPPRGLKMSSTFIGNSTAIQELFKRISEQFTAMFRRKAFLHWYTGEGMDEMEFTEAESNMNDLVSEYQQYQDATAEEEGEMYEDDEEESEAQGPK

NDMVEQMHEDIISLWDQSLK [Helix-A]
Prevention of gp120-induced neuronal loss, Hoechst/PI staining [1]: but not Helix-A peptide abolished all neurotoxic effects of gp120
Binding of peptide to tubulin dimer by SPR [2]: in the higher micromole range
Prevention of gp120-induced neuronal loss, LDH release [3]: but not Helix-A peptide abolished all neurotoxic effects of gp120
Prevention of gp120-mediated neurite pruning [4]: but not Helix-A peptide prevented the gp120-mediated neurite pruning
Binding of peptide to assembled MTs by SPR [5]: in the higher micromole range

c1cc(CN2CCCNCCNCCCNCC2)ccc1CN1CCCNCCNCCCNCC1 [AMD3100]
Internalization of gp120 ([6]; ref Bachis et al. 2003): bloked
gp120 toxicity ([6]; ref Melli et al. 2006, Meucci et al. 1998): prevents gp120 toxicity

RAKWNNTLKQIASK [Helix-B]
Binding of peptide to TUBB3 by SPR [7]: but not Helix-B peptide binds to TUBB3

Source: PMC4828312 (Journal of neurochemistry, 2016)
